Results published in paper PMC9865212, “Compounds from the Petroleum Ether Extract of Wedelia chinensis with Cytotoxic, Anticholinesterase, Antioxidant, and Antimicrobial Activities” (Molecules, 2023).
In brackets after ≈: the same amount, converted by molar mass. Where two headings read alike, the source gives them in different places.

Tests used:
[1] = Reducing power assay (antioxidant, Fe3+ to Fe2+); settings: at a concentration of 40 µg/mL, absorbance at 700 nm
[2] = target: T1, AChE enzyme from mice brain (Mus musculus, UniProt P21836); assay: biochemical
T1 construct: We used the prepared AChE enzyme from mice brain; from tissue; host or cells: mouse brain
T1 sequence (P21836 32-614): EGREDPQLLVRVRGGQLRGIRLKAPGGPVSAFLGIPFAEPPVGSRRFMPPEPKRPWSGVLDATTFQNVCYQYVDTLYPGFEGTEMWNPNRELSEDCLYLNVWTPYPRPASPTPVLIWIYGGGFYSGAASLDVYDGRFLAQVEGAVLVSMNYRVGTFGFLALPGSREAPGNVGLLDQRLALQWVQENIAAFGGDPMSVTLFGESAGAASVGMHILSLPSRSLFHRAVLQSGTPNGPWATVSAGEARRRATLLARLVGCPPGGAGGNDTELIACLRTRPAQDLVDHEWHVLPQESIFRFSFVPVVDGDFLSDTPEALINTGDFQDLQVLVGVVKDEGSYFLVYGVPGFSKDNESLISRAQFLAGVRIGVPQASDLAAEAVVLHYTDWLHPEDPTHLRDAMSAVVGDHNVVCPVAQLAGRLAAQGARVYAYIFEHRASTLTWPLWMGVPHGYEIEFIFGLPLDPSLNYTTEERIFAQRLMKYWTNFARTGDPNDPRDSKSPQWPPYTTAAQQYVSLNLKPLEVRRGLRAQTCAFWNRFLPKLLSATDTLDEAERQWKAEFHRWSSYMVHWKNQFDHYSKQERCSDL
Protocol: (§1) We used the prepared AChE enzyme from mice brain and BChE enzyme from human blood of a volunteer that has been mentioned earlier. Various concentrations of the compound (500 μL) were mixed with the enzyme solution (500 μL) and incubated at 37 °C for 30 min. A reaction mixture was prepared that contained 0.5 mM acetylthiocholine/butyrylthiocholine and 1 mM DTNB in 50 mM sodium phosphate buffer (pH 8.0). To the reaction mixture (3.5 mL), the enzyme solution containing compound was added, incubated, and immediately the absorbance of the solution was determined at 412 nm. […] The percent inhibition was calculated by dividing the difference of sample absorbance from control with control absorbance × 100.

[3] = target: T2, BChE enzyme from human blood (Homo sapiens, UniProt P06276); assay: Anti-BChE assay, Ellman method; format: biochemical
T2 construct: BChE enzyme from human blood of a volunteer; from tissue; host or cells: human blood of a volunteer
T2 sequence (P06276 29-602): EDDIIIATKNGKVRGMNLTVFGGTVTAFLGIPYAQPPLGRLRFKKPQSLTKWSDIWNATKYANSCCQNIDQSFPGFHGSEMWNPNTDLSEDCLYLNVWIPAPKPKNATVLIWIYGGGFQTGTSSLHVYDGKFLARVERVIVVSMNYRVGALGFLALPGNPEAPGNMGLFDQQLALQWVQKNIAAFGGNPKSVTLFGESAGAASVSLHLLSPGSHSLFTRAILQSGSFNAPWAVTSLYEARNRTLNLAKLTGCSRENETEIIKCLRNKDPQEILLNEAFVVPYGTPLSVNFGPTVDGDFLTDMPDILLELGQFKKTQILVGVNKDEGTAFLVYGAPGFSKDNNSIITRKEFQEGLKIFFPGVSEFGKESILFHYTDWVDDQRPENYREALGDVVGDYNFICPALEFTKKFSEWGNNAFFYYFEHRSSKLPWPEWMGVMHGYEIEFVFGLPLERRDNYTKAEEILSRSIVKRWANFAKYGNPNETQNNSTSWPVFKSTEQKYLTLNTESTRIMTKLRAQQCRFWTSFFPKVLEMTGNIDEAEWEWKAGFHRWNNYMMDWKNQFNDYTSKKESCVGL
Protocol: as §1

Bacillus Subtilis = assay: microbe, parasite or virus in culture; format: cell-based, Bacillus subtilis (QL-40)
Sarcina lutea = assay: microbe, parasite or virus in culture; format: cell-based, Sarcina lutea (QL-1660); settings: for zone of inhibition at 400 µg/disc: Micrococcus luteus
Staphylococcus aureus = assay: microbe, parasite or virus in culture; format: cell-based, Staphylococcus aureus (ATCC-259233)
Bacillus megaterium = assay: microbe, parasite or virus in culture; format: cell-based, Bacillus megaterium (QL-38); settings: for zone of inhibition at 400 µg/disc: Priestia megaterium
Strep-β-haemolyticus = assay: organism not typed; format: cell-based, Streptococcus-ß-haemolyticus (ATCC-10389)
Shigella dysenteriae = assay: microbe, parasite or virus in culture; format: cell-based, Shigella dysenteriae (AL-35587)
Shigella shiga = assay: microbe, parasite or virus in culture; format: cell-based, Shigella shiga (ATCC-26107); settings: for zone of inhibition at 400 µg/disc: Shigella
Shigella boydii = assay: microbe, parasite or virus in culture; format: cell-based, Shigella boydii (AL-17313)
Shigella sonnei = assay: microbe, parasite or virus in culture; format: cell-based, Shigella sonnei (AJ-8992)
Shigella flexneriae = assay: microbe, parasite or virus in culture; format: cell-based, Shigella flexneriae (AM-36282)
Escherichia coli = assay: microbe, parasite or virus in culture; format: cell-based, Escherichia coli (FPFC-1407)
Salmonella typhi = assay: microbe, parasite or virus in culture; format: cell-based, Salmonella typhi (ATCC-14028); settings: for zone of inhibition at 400 µg/disc: Salmonella enterica
Klebsiella species = assay: microbe, parasite or virus in culture; format: cell-based
Pseudomonas aeruginosa = assay: microbe, parasite or virus in culture; format: cell-based, Pseudomonas aeruginosa (ATCC-27853)
Aspergillus niger = format: cell-based, Aspergillus niger (ATCC-1204)
Aspergillus flavus = assay: microbe, parasite or virus in culture; format: cell-based, Aspergillus flavus (ATCC-9807)
Candida species = assay: microbe, parasite or virus in culture; format: cell-based
Fusarium species = assay: microbe, parasite or virus in culture; format: cell-based
[4] = Brine shrimp lethality bioassay (cytotoxicity); settings: Artemia salina (brine shrimp nauplii), in vivo
[5] = system: brine shrimp nauplii (Artemia salina Lech); assay: Brine shrimp lethality bioassay (cytotoxicity); settings: brine shrimp lethality, 5–80 μg/mL

| Compound | absorbance (reducing power) [1] | IC50 [2] [µM] | IC50 [3] [µM] | zone of inhibition at 400 µg/disc (Bacillus Subtilis; 400 μg/disc) [mm] | zone of inhibition at 400 µg/disc (Sarcina lutea; 400 μg/disc) [mm] | zone of inhibition at 400 µg/disc (Staphylococcus aureus; 400 μg/disc) [mm] | zone of inhibition at 400 µg/disc (Bacillus megaterium; 400 μg/disc) [mm] | zone of inhibition at 400 µg/disc (Strep-β-haemolyticus; 400 μg/disc) [mm] | zone of inhibition at 400 µg/disc (Shigella dysenteriae; 400 μg/disc) [mm] | zone of inhibition at 400 µg/disc (Shigella shiga) [mm] | zone of inhibition at 400 µg/disc (Shigella boydii; 400 μg/disc) [mm] | zone of inhibition at 400 µg/disc (Shigella sonnei; 400 μg/disc) [mm] | zone of inhibition at 400 µg/disc (Shigella flexneriae; 400 μg/disc) [mm] | zone of inhibition at 400 µg/disc (Escherichia coli; 400 μg/disc) [mm] | zone of inhibition at 400 µg/disc (Salmonella typhi; 400 μg/disc) [mm] | zone of inhibition at 400 µg/disc (Klebsiella species; 400 μg/disc) [mm] | zone of inhibition at 400 µg/disc (Pseudomonas aeruginosa; 400 μg/disc) [mm] | Zone of Inhibition (Aspergillus niger; 400μg/disc) | LC50 at 24 h [4] [mg/L] | Zone of Inhibition (Candida species; 400μg/disc) | other results |
| --- | --- | --- | --- | --- | --- | --- | --- | --- | --- | --- | --- | --- | --- | --- | --- | --- | --- | --- | --- | --- | --- |
| C=C1C[C@@]23CCC4[C@](C)(C(=O)O)CCC[C@@]4(C)[C@@H]2CC[C@@H]1C3 (single isomer, unassigned; (-)) [Compound 2, (-) kaur-16-en-19-oic acid] | 1.26 | 115 | 111 | 14 | 16 | 13 | 12 | 18 | 20 | 15 | 14 | 13 | 13 | 16 | 15 | 17 | 16 | − | 16.2 ± 1.11 (≈ 53.5 µM) |  | zone of inhibition at 400 µg/disc (Aspergillus flavus; 400μg/disc): 17 mm; zone of inhibition at 400 µg/disc (Candida species; 400μg/disc): 13 mm; zone of inhibition at 400 µg/disc (Fusarium species; 400μg/disc): 11 mm |
| C[C@@]12CCC[C@@](C)(C(=O)O)[C@H]1CC[C@@]13C[C@@H](CC[C@H]12)[C@](C)(O)C3 [Compound 1, (-) kaur-16α-hydroxy-19-oic acid] | 1.55 |  |  | 13 | 17 | 23 | 14 | 17 | 19 | 14 | 13 | 15 | 12 | 14 | 13 | 15 | 15 | − | 12.4 ± 0.87 (≈ 38.8 µM) | inactive and − | IC50 ([2]; mean ± SD (n = 3), read-out: IC50, inhibition of acetylcholinesterase (AChE) (converted)): 152 µM; IC50 ([3]; mean ± SD (n = 3), read-out: IC50, inhibition of butyrylcholinesterase (BChE) (converted)): 145 µM; zone of inhibition at 400 µg/disc (Aspergillus flavus; 400μg/disc): 14 mm; zone of inhibition at 400 µg/disc (Fusarium species; 400μg/disc): 12 mm |
| CC[C@H](CC[C@@H](C)[C@H]1CC[C@H]2[C@@H]3CC=C4C[C@@H](O)CC[C@]4(C)[C@H]3CC[C@]12C)C(C)C [Compound 3, β-sitosterol] |  | 107 | 104 |  |  |  |  |  |  |  |  |  |  |  |  |  |  | − |  | − | Zone of Inhibition (Bacillus Subtilis; 400 μg/disc): −; Zone of Inhibition (Sarcina lutea; 400 μg/disc): −; Zone of Inhibition (Staphylococcus aureus; 400 μg/disc): −; Zone of Inhibition (Bacillus megaterium; 400 μg/disc): −; Zone of Inhibition (Strep-β-haemolyticus; 400 μg/disc): −; Zone of Inhibition (Shigella dysenteriae; 400 μg/disc): −; Zone of Inhibition (Shigella shiga): −; Zone of Inhibition (Shigella boydii; 400 μg/disc): −; Zone of Inhibition (Shigella sonnei; 400 μg/disc): −; Zone of Inhibition (Shigella flexneriae; 400 μg/disc): −; Zone of Inhibition (Escherichia coli; 400 μg/disc): −; Zone of Inhibition (Salmonella typhi; 400 μg/disc): −; Zone of Inhibition (Klebsiella species; 400 μg/disc): −; Zone of Inhibition (Pseudomonas aeruginosa; 400 μg/disc): −; Zone of Inhibition (Aspergillus flavus; 400μg/disc): −; Zone of Inhibition (Fusarium species; 400μg/disc): −; cytotoxic effects (in words) [5]: All the compounds except 3 showed significant cytotoxic effects |
| CC(C)C=CC[C@@H](C)[C@H]1CC[C@H]2[C@@H]3CC=C4CC(O)CC[C@]4(C)[C@H]3CC[C@]12C (some centres unmarked) [Compound 4, cholesta-5,23-dien-3-ol] | 1.89 | 117 | 124 | 12 | 13 | 9 | 12 | 12 | 13 | 14 | 10 | 12 | 11 | 13 | 10 | 13 | 12 | − | 14.3 ± 0.87 (≈ 37.1 µM) | − | Zone of Inhibition (Aspergillus flavus; 400μg/disc): −; Zone of Inhibition (Fusarium species; 400μg/disc): − |
| NC[C@H]1O[C@H](O[C@H]2[C@H](O)[C@@H](O[C@H]3O[C@H](CO)[C@@H](O)[C@H](N)[C@H]3O)[C@H](N)C[C@@H]2N)[C@H](O)[C@@H](O)[C@@H]1O [Std. Kan, kanamycin, reference compound] |  |  |  |  |  |  |  |  |  |  |  |  |  |  |  |  |  |  |  |  | Zone of Inhibition (Bacillus Subtilis; 30 μg/disc): 24 mm; Zone of Inhibition (Sarcina lutea; 30 μg/disc): 29 mm; Zone of Inhibition (Staphylococcus aureus; 30 μg/disc): 33 mm; Zone of Inhibition (Bacillus megaterium; 30 μg/disc): 27 mm; Zone of Inhibition (Strep-β-haemolyticus; 30 μg/disc): 27 mm; Zone of Inhibition (Shigella dysenteriae; 30 μg/disc): 32 mm; Zone of Inhibition (Shigella shiga): 31 mm; Zone of Inhibition (Shigella boydii; 30 μg/disc): 31 mm; Zone of Inhibition (Shigella sonnei; 30 μg/disc): 31 mm; Zone of Inhibition (Shigella flexneriae; 30 μg/disc): 27 mm; Zone of Inhibition (Escherichia coli; 30 μg/disc): 27 mm; Zone of Inhibition (Salmonella typhi; 30 μg/disc): 28 mm; Zone of Inhibition (Klebsiella species; 30 μg/disc): 28 mm; Zone of Inhibition (Pseudomonas aeruginosa; 30 μg/disc): 31 mm |
| C[C@@H]1[C@H](O)[C@@H](C)/C=C/C=C/CC/C=C/C=C/C=C/C=C/C(O[C@H]2O[C@H](C)[C@@H](O)[C@H](N)[C@@H]2O)CC2O[C@](O)(CC(O)C(O)CCC(O)CC(O)CC(O)CC(=O)O[C@H]1C)CC(O)C2C(=O)O (some centres unmarked) [Std. Nystatin, nystatin, reference compound] |  |  |  |  |  |  |  |  |  |  |  |  |  |  |  |  |  |  |  |  | Zone of Inhibition (Aspergillus niger; 50 μg/disc): 29 mm; Zone of Inhibition (Aspergillus flavus; 50 μg/disc): 30 mm; Zone of Inhibition (Candida species; 50 μg/disc): 28 mm; Zone of Inhibition (Fusarium species; 50 μg/disc): 26 mm |
| CC[C@]1(O)C[C@H]2CN(CCc3c([nH]c4ccccc34)[C@@](C(=O)OC)(c3cc4c(cc3OC)N(C=O)[C@H]3[C@@](O)(C(=O)OC)[C@H](OC(C)=O)[C@]5(CC)C=CCN6CC[C@]43[C@@H]65)C2)C1 [Vincristine, vincristine, reference compound] |  |  |  |  |  |  |  |  |  |  |  |  |  |  |  |  |  |  | 3.48 ± 0.36 (≈ 4.22 µM) |  |  |
| O.Oc1cc(O)c2c(c1)O[C@H](c1ccc(O)c(O)c1)[C@@H](O)C2 [catechin, reference compound] | 2.14 |  |  |  |  |  |  |  |  |  |  |  |  |  |  |  |  |  |  |  |  |
